From patent publication US9035085B2, “Aryl ketone compounds and compositions for delivering active agents” (EMISPHERE TECHNOLOGIES, INC., priority 2004, dated 2015)

Test: Insulin oral delivery in rats (blood glucose)
Type: in vivo, Male Sprague-Dawley rats
Settings: delivery agent 200 mg/kg with insulin 0.50 mg/kg, 1 ml/kg
From the text: The typical dosing and sampling protocols were as follows.

For `COc1ccc(C(=O)CCC(=O)O)cc1` [Compound 5, 4-(4-Methoxy-phenyl)-4-oxo-butyric acid], which “% Change in Glucose (from control)” value is on record?
The value was −12.1%.

For `CCCCCCOc1ccc(C(=O)CCC(=O)O)cc1` [Compound 34], which “% Change in Glucose (from control)” value is on record?
Its value is 9.4%.

For `O=C(O)CCCC(=O)c1ccc(Cl)cc1` [Compound 36], which “% Change in Glucose (from control)” value is on record?
Its value is −31.9%.

Which “% Change in Glucose (from control)” value does the source give for `COc1c(C)cc(C(=O)CCCCC(=O)O)cc1C` [Compound 10] here?
The value was −13.5%.

With `O=C(O)CCCC(=O)c1ccccc1` [Compound 8] as the compound, how does the “% Change in Glucose (from control)” value read?
The value was −1.3%.

For `O=C(O)CCCC(=O)c1cccc(Oc2ccccc2)c1` [Compound 41], which “% Change in Glucose (from control)” value is on record?
Its value is −16.5%.

For `Cc1ccc(C(=O)CCC(=O)O)cc1C` [Compound 17], which “% Change in Glucose (from control)” value is on record?
The value was −9.5%.

Which “% Change in Glucose (from control)” value does the source give for `O=C(O)CCCCC(=O)c1cc(F)cc(F)c1` [Compound 37] here?
The value was −39.0%.

With `O=C(O)CCC(=O)c1ccccc1` [Compound 1, 4-Oxo-4-phenyl-butyric acid] as the compound, how does the “% Change in Glucose (from control)” value read?
Its value is −30.7%.

Which “% Change in Glucose (from control)” value does the source give for `Cc1ccc(C(=O)CCCCC(=O)O)cc1C` [Compound 16] here?
Its value is −25.1%.

Which “% Change in Glucose (from control)” value does the source give for `COc1ccc(C(=O)CCCCC(=O)O)cc1` [Compound 14] here?
The value was −2.0%.

Which “% Change in Glucose (from control)” value does the source give for `O=C(O)CCCC(=O)c1ccc(Oc2ccccc2)cc1` [Compound 40] here?
Its value is −3.9%.

With `O=C(O)CCCCCC(=O)c1ccccc1` [Compound 28] as the compound, how does the “% Change in Glucose (from control)” value read?
Its value is −26.4%.

Which “% Change in Glucose (from control)” value does the source give for `O=C(O)CCCCCCC(=O)c1ccccc1` [Compound 25] here?
The value was −20.8%.

With `Cc1cc(C)cc(C(=O)CCCCC(=O)O)c1` [Compound 23] as the compound, how does the “% Change in Glucose (from control)” value read?
Its value is −7.5%.

For `O=C(O)CCCCC(=O)c1cc(Cl)ccc1Cl` [Compound 21], which “% Change in Glucose (from control)” value is on record?
The value was −40.8%.

Which “% Change in Glucose (from control)” value does the source give for `Cc1cc(C)cc(C(=O)CCCCCCC(=O)O)c1` [Compound 20] here?
The value was −6.6%.

With `COc1ccc(C(=O)CCCC(=O)O)cc1` [Compound 6, 5-(4-Methoxy-phenyl)-5-oxo-pentanoic acid] as the compound, how does the “% Change in Glucose (from control)” value read?
The value was −18.3%.

Which “% Change in Glucose (from control)” value does the source give for `O=C(O)CCC(=O)c1ccc(F)cc1F` [Compound 30] here?
The value was −10.5%.

Which “% Change in Glucose (from control)” value does the source give for `O=C(O)CCCCCC(=O)c1cccc(Oc2ccccc2)c1` [Compound 42] here?
The value was −13.8%.

Which “% Change in Glucose (from control)” value does the source give for `Cc1ccc(C(=O)CCC(=O)O)cc1` [Compound 38] here?
The value was −26.9%.

For `COc1ccccc1C(=O)CCC(=O)O` [Compound 12], which “% Change in Glucose (from control)” value is on record?
The value was −2.3%.

Which “% Change in Glucose (from control)” value does the source give for `O=C(O)CCC(=O)c1cc(Cl)ccc1Cl` [Compound 22] here?
Its value is −16.3%.

Which “% Change in Glucose (from control)” value does the source give for `O=C(O)CCC(=O)c1cc(F)ccc1F` [Compound 35] here?
Its value is −11.8%.

Which “% Change in Glucose (from control)” value does the source give for `Cc1ccc(C)c(C(=O)CCC(=O)O)c1` [Compound 19] here?
Its value is −28.3%.

With `CCc1ccc(C(=O)CCC(=O)O)cc1` [Compound 29] as the compound, how does the “% Change in Glucose (from control)” value read?
Its value is −35.4%.
